Results published in patent publication EP1860116A1, “Trehalose conjugate with carnosine having antioxidant activity, stable to enzymatic hydrolysis, procedure for its preparation, and pharmaceutical, cosmetic and nutraceutical compositions that contain it” (Universita' Degli Studi Di Catania, priority 2006, dated 2007).

What was measured:
[1] = system: carnosinase contained in rat brain homogenate; test: Enzymatic hydrolysis by brain carnosinase (rat brain homogenate, histidine quantified fluorometrically with OPA); type: in vitro ADME; conditions: 20% rat brain homogenate, Tris buffer pH 8.1, 37°C for 2 h, compared with carnosine
Description: The breakdown of the carbohydrate conjugate of carnosine was measured by the following method: a 20% homogenate of rat brain was prepared with a 50 mM Tris buffer (Tris-(hydroxymethyl)-aminomethane) pH 8.1 containing 2 mM DTT (di-thio-threitol), and the mixture was centrifuged for 20 min at 19000 rpm. Part of the supernatant solution (192 µl) was incubated at 37°C for 2 h with the carnosine-trehalose conjugate, in a final volume of 300 µl. The reaction was interrupted by adding acetonitrile (300 µL), and the solution was subjected to double extraction with chloroform. The amount of histidine in the final solution was quantified fluorometrically after reacting with orthophthaldialdehyde OPA (Fluka), according to a method reported in Clin. Chim.

[2] = system: low-density lipoproteins (LDL); test: Antioxidant activity towards low-density lipoproteins (LDL): Cu2+-induced lipid peroxidation, MDA determined by HPLC; type: biochemical; conditions: human LDL, peroxidation induced by copper (II) ions (40 µM), 4 h at 37°C, pH 7.4; conjugate at 5, 10, 20, 50, 100 and 200 µM; compared with carnosine
Description: In order to test the antioxidant activity of carnosine and the carbohydrate derivative, freeze-dried human LDL (Sigma) was used as lipid peroxidation target.
The MDA standard was obtained by hydrolysis of the bis-dimethylacetal derivative (Sigma) in 1% sulphuric acid.
The process of peroxidation of humane LDLs (Sigma), suspended in 20 mM ammonium acetate at pH 7.4, was triggered by the addition of Cu^2+ (40 µM) to the protein suspension, followed by a 4 h incubation at 37°C (Free Radic. Res. 35, 953, 2001; J. Agr. Food Chem. 45, 3362, 1997). The lipid peroxidation inhibiting effect of the trehalose-carnosine conjugate was evaluated by adding this molecule to the LDL-Cu^2+ system at increasing concentrations (5, 10, 20, 50, 100 and 200 µM). The peroxidation reaction was interrupted by adding an equal volume of acetonitrile, followed by double extraction with chloroform.
For the determination of MDA, the end product of lipid peroxidation, the aqueous extract was analysed by HPLC, using an analysis method reported in Anal. Biochem. 197, 191, 1991 (data reported in figure 1).

O=C(CCNC[C@H]1O[C@H](O[C@H]2O[C@H](CO)[C@@H](O)[C@H](O)[C@H]2O)[C@H](O)[C@@H](O)[C@@H]1O)N[C@@H](Cc1c[nH]cn1)C(=O)O [compound I, 6-(β-alanyl-L-histidine)-6-deoxy-α,α'-trehalose]
resistance to enzymatic hydrolysis by carnosinase [1]: more resistant to the carnosinase contained in rat brain homogenate than carnosine
resistance to enzymatic hydrolysis by carnosinase ([1]; listed as compound according to the invention): more resistant to enzymatic hydrolysis than carnosine
antioxidant activity (lipid peroxidation inhibiting effect) [2]: dose-dependent antioxidant effect, which was significantly greater than that of carnosine
